Laboratory results taken from US20230399312A1, “SUBSTITUTED PYRIMIDINES AND METHODS OF USE” (THERAVANCE BIOPHARMA R&D IP, LLC, priority 2020, published 2023).

How the values were obtained:
[1] = biological target: T1, recombinant human ALK5 (TGF-βR1) protein (Homo sapiens, UniProt P36897); test: Biochemical ALK5 (TGF-βR1) assay to measure pKi (LANCE Ultra ULight kinase assay); conditions: apparent pKi, converted from pIC50 by Cheng-Prusoff
T1 construct: purchased Life Technologies PR9075A
T1 sequence (P36897 34-503): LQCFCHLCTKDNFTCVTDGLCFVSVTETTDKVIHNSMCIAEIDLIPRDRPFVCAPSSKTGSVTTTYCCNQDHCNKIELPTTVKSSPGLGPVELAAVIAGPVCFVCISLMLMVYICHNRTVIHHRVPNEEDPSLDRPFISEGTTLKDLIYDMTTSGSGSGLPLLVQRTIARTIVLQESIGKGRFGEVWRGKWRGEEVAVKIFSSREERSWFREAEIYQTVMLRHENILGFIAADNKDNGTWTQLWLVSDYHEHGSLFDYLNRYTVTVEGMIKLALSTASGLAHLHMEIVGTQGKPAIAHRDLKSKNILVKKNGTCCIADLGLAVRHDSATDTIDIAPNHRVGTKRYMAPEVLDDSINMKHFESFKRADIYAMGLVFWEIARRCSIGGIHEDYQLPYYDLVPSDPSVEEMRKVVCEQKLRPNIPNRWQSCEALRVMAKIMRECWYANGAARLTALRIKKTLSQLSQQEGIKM
In short: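 Enzyme preincubated with compound for 60 min at room temperature, then reacted with ATP (125 μM as 5× stock) for 60 min at 37 °C. Stopped with EDTA plus Eu-anti-phospho-Topoisomerase 2-alpha (Thr1342) antibody and read by TR-FRET at 665 nm. pIC50 from a 4-parameter fit, converted to pKi by Cheng-Prusoff.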

[2] = test system: TGF-β-stimulated SMAD3 phosphorylation in BEAS-2B cells; test: Cellular ALK5 potency assay, inhibition of TGF-β stimulated pSMAD3 formation in BEAS-2B cells; format: cell-based; conditions: Homo sapiens, pSMAD3, TGF-β 10 ng/mL, read-out: BEAS2B pIC50 (converted)
In short: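 Cells were seeded overnight, rinsed into HEPES/BSA-supplemented HBSS, and dosed with serially diluted compound for 1 h at 37 °C, 5% CO2. TGF-β stimulation (10 ng/mL final) followed for 30 min, then lysis and AlphaLISA pSMAD3 measurement; potency reported as pIC50.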

SMILES | Ki [1] | IC50 [2]
Cc1cccc(-c2nccc(Nc3ccnc(Nc4ccc(N5C[C@@H](C)N[C@@H](C)C5)cc4)n3)n2)n1 [Compound 143, N4-[2-(6-methyl-2-pyridyl)pyrimidin-4-yl]-N2-[4-[rac-(3S,5R)-3,5-dimethylpiperazin-1-yl]phenyl]pyrimidine-2,4-diamine] | 0.0398 to 0.316 nM | 25.1 to 158 nM
Cc1cccc(-c2nccc(Nc3ccnc(Nc4ccc(N5CCCC(C(=O)O[C@H]6CCNC6)C5)cc4)n3)n2)n1 (stereo partly drawn) [Compound 144, [(3S)-pyrrolidin-3-yl] 1-[4-[[4-[[2-(6-methyl-2-pyridyl)pyrimidin-4-yl]amino]pyrimidin-2-yl]amino]phenyl]piperidine-3-carboxylate] | ≤ 0.0316 nM | 25.1 to 158 nM
Cc1cccc(-c2nccc(Nc3ccnc(Nc4cccc(NC(=O)C5CCN(C)CC5)c4)n3)n2)n1 [Compound 145, 1-methyl-N-[3-[[4-[[2-(6-methyl-2-pyridyl)pyrimidin-4-yl]amino]pyrimidin-2-yl]amino]phenyl]piperidine-4-carboxamide] | 0.0398 to 0.316 nM | 25.1 to 158 nM
Cc1cccc(-c2nccc(Nc3ccnc(Nc4ccc(CCO)cc4)n3)n2)n1 [Compound 146, 2-[4-[[4-[[2-(6-methyl-2-pyridyl)pyrimidin-4-yl]amino]pyrimidin-2-yl]amino]phenyl]ethanol] | 0.398 to 3.16 nM | 25.1 to 158 nM
Cc1cccc(-c2nccc(Nc3ccnc(Nc4ccc(C(=O)OC5CCNCC5)cc4)n3)n2)n1 [Compound 147, 4-piperidyl 4-[[4-[[2-(6-methyl-2-pyridyl)pyrimidin-4-yl]amino]pyrimidin-2-yl]amino]benzoate] | 0.0398 to 0.316 nM | 25.1 to 158 nM
Cc1cccc(-c2nccc(Nc3ccnc(Nc4nc(C(=O)OC5CCNCC5)cs4)n3)n2)n1 [Compound 148, piperidin-4-yl 2-((4-((2-(6-methylpyridin-2-yl)pyrimidin-4-yl)amino)pyrimidin-2-yl)amino)thiazole-4-carboxylate] | 0.398 to 3.16 nM | 25.1 to 158 nM
Cc1cccc(-c2nccc(Nc3ccnc(Nc4ccc(N5CCN(C(=O)CSC6CCOC6=O)CC5)cc4)n3)n2)n1 (stereo not shown) [Compound 149, 3-[2-[4-[4-[[4-[[2-(6-methyl-2-pyridyl)pyrimidin-4-yl]amino]pyrimidin-2-yl]amino]phenyl]piperazin-1-yl]-2-oxo-ethyl] sulfanyltetrahydrofuran-2-one] | 0.0398 to 0.316 nM | 25.1 to 158 nM
Cc1cccc(-c2nccc(Nc3ccnc(Nc4ccc(NC(=O)C5CCN(C)CC5)cc4)n3)n2)n1 [Compound 150, 1-methyl-N-[4-[[4-[[2-(6-methyl-2-pyridyl)pyrimidin-4-yl]amino]pyrimidin-2-yl]amino]phenyl]piperidine-4-carboxamide] | 0.0398 to 0.316 nM | 25.1 to 158 nM
Cc1cccc(-c2nccc(Nc3ccnc(Nc4ccc(C5=CCC(N)CC5)cc4)n3)n2)n1 (stereo not shown) [Compound 151, N2-[4-(4-aminocyclohexen-1-yl)phenyl]-N4-[2-(6-methyl-2-pyridyl)pyrimidin-4-yl]pyrimidine-2,4-diamine] | 0.0398 to 0.316 nM | 25.1 to 158 nM
Cc1cccc(-c2nccc(Nc3ccnc(Nc4ccc(CN5CC(C(=O)O[C@@H]6CCNC6)C5)cc4)n3)n2)n1 [Compound 152, [(3R)-pyrrolidin-3-yl] 1-[[4-[[4-[[2-(6-methyl-2-pyridyl)pyrimidin-4-yl]amino]pyrimidin-2-yl]amino]phenyl]methyl] azetidine-3-carboxylate] | 0.0398 to 0.316 nM | 25.1 to 158 nM
Cc1cccc(-c2nccc(Nc3ccnc(Nc4ccc(N5CCN(C)CC5)cc4)n3)n2)n1 [Compound 153, N2-[4-(4-methylpiperazin-1-yl)phenyl]-N4-[2-(6-methyl-2-pyridyl)pyrimidin-4-yl]pyrimidine-2,4-diamine] | ≤ 0.0316 nM | 25.1 to 158 nM
Cc1cccc(-c2nccc(Nc3ccnc(Nc4cccc(NC(=O)C5CNC5)c4)n3)n2)n1 [Compound 154, N-[3-[[4-[[2-(6-methyl-2-pyridyl)pyrimidin-4-yl]amino]pyrimidin-2-yl]amino]phenyl]azetidine-3-carboxamide] | 0.0398 to 0.316 nM | 25.1 to 158 nM
Cc1cccc(-c2nccc(Nc3ccnc(Nc4nc(CN5CCC[C@@H](C(=O)OCC6CNC6)C5)cs4)n3)n2)n1 [Compound 155, azetidin-3-ylmethyl (3R)-1-[[2-[[4-[[2-(6-methyl-2-pyridyl)pyrimidin-4-yl]amino]pyrimidin-2-yl]amino]thiazol-4-yl]methyl]piperidine-3-carboxylate] | 0.398 to 3.16 nM | 200 to 1260 nM
CCOC(=O)Cc1cc(Nc2nccc(Nc3ccnc(-c4cccc(C)n4)n3)n2)ccc1N1CCNCC1 [Compound 156, ethyl 2-[5-[[4-[[2-(6-methyl-2-pyridyl)pyrimidin-4-yl]amino]pyrimidin-2-yl]amino]-2-piperazin-1-yl-phenyl]acetate] | 0.0398 to 0.316 nM | 25.1 to 158 nM
Cc1cccc(-c2nccc(Nc3ccnc(Nc4ccc(NCCN5CCNCC5)cc4)n3)n2)n1 [Compound 157, N4-[2-(6-methyl-2-pyridyl)pyrimidin-4-yl]-N2-[4-(2-piperazin-1-ylethylamino)phenyl]pyrimidine-2,4-diamine] | 0.0398 to 0.316 nM | 200 to 1260 nM
Cc1cccc(-c2nccc(Nc3ccnc(Nc4ccc(NC(=O)C5CCNCC5)c(Cl)c4)n3)n2)n1 [Compound 158, N-[2-chloro-4-[[4-[[2-(6-methyl-2-pyridyl)pyrimidin-4-yl]amino]pyrimidin-2-yl]amino]phenyl]piperidine-4-carboxamide] | 0.0398 to 0.316 nM | 25.1 to 158 nM
Cc1cccc(-c2nccc(Nc3ccnc(Nc4ccc(N5CCNCC5CC(=O)OC5CNC5)cc4)n3)n2)n1 (stereo not shown) [Compound 159, azetidin-3-yl 2-[1-[4-[[4-[[2-(6-methyl-2-pyridyl)pyrimidin-4-yl]amino]pyrimidin-2-yl]amino]phenyl]piperazin-2-yl]acetate] | 0.0398 to 0.316 nM | 200 to 1260 nM
Cc1cccc(-c2nccc(Nc3ccnc(Nc4ccc5c(c4)CCNCC5)n3)n2)n1 [Compound 160, N4-[2-(6-methyl-2-pyridyl)pyrimidin-4-yl]-N2-(2,3,4,5-tetrahydro-1H-3-benzazepin-7-yl)pyrimidine-2,4-diamine] | 0.0398 to 0.316 nM | 25.1 to 158 nM
Cc1cccc(-c2nccc(Nc3ccnc(Nc4ccc(CN5CCC(C(=O)O[C@H]6CCN(C)C6)C5)cc4)n3)n2)n1 (stereo partly drawn) [Compound 161, [(3S)-1-methylpyrrolidin-3-yl] 1-[[4-[[4-[[2-(6-methyl-2-pyridyl)pyrimidin-4-yl]amino]pyrimidin-2-yl]amino]phenyl]methyl] pyrrolidine-3-carboxylate] | 0.0398 to 0.316 nM | ≤ 20 nM
Cc1cccc(-c2nccc(Nc3ccnc(Nc4ccc(NS(=O)(=O)c5ccc(C(N)=O)cc5)cc4)n3)n2)n1 [Compound 162, 4-[[4-[[4-[[2-(6-methyl-2-pyridyl)pyrimidin-4-yl]amino]pyrimidin-2-yl]amino]phenyl]sulfamoyl] benzamide] | 0.398 to 3.16 nM | 200 to 1260 nM
Cc1cccc(-c2nccc(Nc3ccnc(Nc4ccc(CN5CC6(CNC6)C5)cc4)n3)n2)n1 [Compound 163, N2-[4-(2,6-diazaspiro[3.3]heptan-2-ylmethyl)phenyl]-N4-[2-(6-methyl-2-pyridyl)pyrimidin-4-yl]pyrimidine-2,4-diamine] | 0.0398 to 0.316 nM | 25.1 to 158 nM
Cc1cccc(-c2nccc(Nc3ccnc(Nc4cccc(NC(=O)C5(CO)CNC5)c4)n3)n2)n1 [Compound 164, 3-(hydroxymethyl)-N-[3-[[4-[[2-(6-methyl-2-pyridyl)pyrimidin-4-yl]amino]pyrimidin-2-yl]amino]phenyl]azetidine-3-carboxamide] | 0.0398 to 0.316 nM | 25.1 to 158 nM
Fc1ccc(Cl)cc1-c1nccc(Nc2ccnc(Nc3ccc(CN4CCOCC4)cc3)n2)n1 [Compound 165, N4-[2-(5-chloro-2-fluoro-phenyl)pyrimidin-4-yl]-N2-[4-(morpholinomethyl)phenyl] pyrimidine-2,4-diamine] | 3.98 to 31.6 nM | 25.1 to 158 nM
Cc1ccc(O)cc1-c1nccc(Nc2ccnc(Nc3ccc(N4CCOCC4)cc3)n2)n1 [Compound 166, 4-methyl-3-[4-[[2-(4-morpholinoanilino)pyrimidin-4-yl]amino]pyrimidin-2-yl]phenol] | 3.98 to 31.6 nM | 25.1 to 158 nM
Cc1cccc(-c2nccc(Nc3ccnc(Nc4ccc(CN5CC(C(=O)OC6CNC6)C5)cc4)n3)n2)n1 [Compound 167, azetidin-3-yl 1-[[4-[[4-[[2-(6-methyl-2-pyridyl)pyrimidin-4-yl]amino]pyrimidin-2-yl]amino]phenyl]methyl] azetidine-3-carboxylate] | 0.0398 to 0.316 nM | 25.1 to 158 nM
Cc1cccc(-c2nccc(Nc3ccnc(Nc4cccc(NC(=O)NC5CCNC5)c4)n3)n2)n1 (stereo not shown) [Compound 168, 1-[3-[[4-[[2-(6-methyl-2-pyridyl)pyrimidin-4-yl]amino]pyrimidin-2-yl]amino]phenyl]-3-pyrrolidin-3-yl-urea] | 0.0398 to 0.316 nM | 25.1 to 158 nM
